Laboratory results as given in patent US10751378B2, “Pharmaceutical composition comprising Pistacia weinmannifolia extract, fraction of same or compound separated from same for preventing or treating chronic obstructive pulmonary disease (COPD)” (Korea Research Institute of Bioscience and Biotechnology, priority 2014, dated 2020).

Columns and labels:
H292 cells = test: Cytotoxicity test: H292 cell viability (CCK-8); type: cell-based, human; details: 24 hours, negative control (0.2% DMSO) = 100%
Experimental: To confirm the cytotoxicity of a Pistacia weinmannifolia extract, a fraction thereof, and a compound isolated therefrom, which were prepared and extracted in Example 1, experiments were performed by applying the method described in the existing references (Ishiyama et al., Talanta, 44, pp. 1299-1305, 1997; Tominaga et al., Anal. Commun., 36, pp. 47-50, 1999).
H292 (CRL-1848) was purchased from the American Type Culture Collection (ATCC). The H292 cells were cultured in RPMI medium (SH30027.01, RPMI 1640, Gibco) containing 10% fetal bovine serum and antibiotics, and cultured in the condition of humidified 5% CO2 atmosphere at 37° C. TNF-α was purchase from a company (300-01A, Peprotech, USA) and used.
The cells in a medium (GM) were placed in a 96-well plate at a density of (1×10^3 cells/well). After 24 hours, the cells were cultured along with a sample for one day. The cell viability rate was read via trivalues according to the manufacturer's manual using the Cell Counting Kit-8 (CK04-01, Dojindo Molecular Technologies, ML). The absorbance was measured using the VERSAmax microplate reader (SMP500-14915, Molecular Devices, USA) and the measured absorbance was converted into a cell number via a standard curve.
H292 cells, human mucosa cells of lung cancer, were suspended in RPMI medium (Gibco) containing 10% fetal bovine serum in a concentration of 5×10^4 cells/mL, inoculated to a 96 well-plate in an amount of 100 μL per each well, and allowed to be attached thereto for 12 hours. Six active fractions of Pistacia and 3 single compounds (PW11, PW12, and PW13) were treated according to concentrations, and cultured for 24 hours. As explained in the cell counting CCK-8 kit (Dojindo Molecular Technologies, ML), the CCK-8 solution (10 μL) was mixed with the medium (90 μL). The mixture (100 μL) was added to each well, reacted for the minimum 30 minutes to the maximum 4 hours, and the absorbance was measured at 570 nm. The cell viability was calculated according to Equation 1 above with reference to the negative control, which was treated with DMSO in a concentration of 0.2%, set at 100%. Cell Viability (%)=[value at OD 570 nm after treatment with an extract/value at OD 570 nm (negative control)]×100 [Equation 1]

MUC5AC = test: Inhibition of MUC5AC protein production induced by TNF-α (immunoassay of supernatant); type: cell-based; details: TNF-α 20 ng/mL; for inhibition at 0.125 µM / inhibition at 0.25 µM / inhibition at 0.5 µM / inhibition at 1 µM: read-out: Inhibition Rate (%) of MUC5AC production
Excerpt: To analyze the effects of the Pistacia weinmannifolia extract, a fraction thereof, and a compound isolated therefrom, prepared and extracted in Example 1, on the prevention and treatment of inflammatory diseases such as COPD, the inhibitory effect of the Pistacia weinmannifolia extract, a fraction thereof, and a compound isolated therefrom against the secretion of a related protein, MUC5AC. In this regard, to confirm the inhibitory effect of the samples in Examples on the production of MUC5AC protein, experiments were performed using the method described in the reference (Sikder, M A. et al., Phytotherapy research: PTR. 28, 62-8, 2014).
The supernatant, which was recovered for the immunoassay of the produced MUC5AC, was aliquoted into a 96 well-plate in an amount of 50 μL and dried in a homeostat set at 50° C. The resultant was washed with PBS containing 1% BSA, reacted with MUC5AC antibody (ab3649, abcam) at room temperature for one hour, and aliquoted with the secondary antibody and reacted for one hour. The resultant was rewashed, reacted with 3,3′,5,5′-tetramethylbenzidine peroxide solution (54827-17-7, Sigma-Aldrich) for 20 minutes, and the reaction was stopped with a sulfuric acid solution and the coloration was measured at 450 nm using a microplate reader (VERSAmax microplate reader, SMP500-14915, Molecular Devices, USA).

Row | SMILES | H292 Cell Viability Rate (%, Mean ± SD) (H292 cells; 0.125 μM) | H292 Cell Viability Rate (%, Mean ± SD) (H292 cells; 0.25 μM) | H292 Cell Viability Rate (%, Mean ± SD) (H292 cells; 0.5 μM) | H292 Cell Viability Rate (%, Mean ± SD) (H292 cells; 1 μM) | Amount of MUC5AC Secretion (Relative % to TNF-α Treated Group) (MUC5AC; Conc. 0.125 μM) | inhibition at 0.125 µM (MUC5AC; Conc. 0.125 μM) | Amount of MUC5AC Secretion (Relative % to TNF-α Treated Group) (MUC5AC; Conc. 0.25 μM) | inhibition at 0.25 µM (MUC5AC; Conc. 0.25 μM) | Amount of MUC5AC Secretion (Relative % to TNF-α Treated Group) (MUC5AC; Conc. 0.5 μM) | inhibition at 0.5 µM (MUC5AC; Conc. 0.5 μM) | Amount of MUC5AC Secretion (Relative % to TNF-α Treated Group) (MUC5AC; Conc. 1 μM) | inhibition at 1 µM (MUC5AC; Conc. 1 μM)
1 | O=C(/C=C/c1ccc(Oc2ccc(/C=C/C(=O)c3ccc(O)cc3O)cc2O)cc1)c1ccc(O)cc1O [Compound PW12] | 95.80 ± 2.90% | 96.47 ± 3.21% | 104.50 ± 1.32% | 115.88 ± 0.50% | 75.77 ± 7.66% | 24.2% | 74.23 ± 12.98% | 25.8% | 69.50 ± 5.37% | 30.5% | 69.74 ± 8.56% | 30.3%
2 | O=C(/C=C/c1ccc(Oc2ccc([C@@H]3[C@@H](C(=O)c4ccc(O)cc4O)[C@H](C(=O)c4ccc(O)cc4O)[C@H]3c3ccc(O)cc3)cc2O)cc1)c1ccc(O)cc1O [Compound PW13, di-(2,4-dihydroxybenzoyl)-(3,4-dihydroxyphenyl)-(4-hydroxyphenyl)-cyclobutane-3-O-4′-bichalcone] | 104.80 ± 2.34% | 103.53 ± 3.07% | 126.28 ± 7.75% | 71.92 ± 5.47% | 83.92 ± 9.77% | 16.1% | 82.39 ± 3.10% | 17.6% | 77.30 ± 2.33% | 22.7% | 73.76 ± 2.68% | 26.2%
